Reference: patent publication US20260297035A1, “PROTEIN KINASE INHIBITORS AND USES THEREOF” (DELiver Therapeutics, Inc., priority 2023, published 2026)

Test: non-GLP multi-dose toxicity study (dose escalation, daily IP injection)
Format: in vivo, mouse (6-week-old Balb/c females)
Details: mice
Method: An initial non-GLP multi-dose toxicity study of Cmpd11 and Cmpd66 was performed, which included a comparison to COM1 and COM3 clinical compounds. […] Body weights were recorded 2× weekly for healthy mice followed by weekly in the recovery phase. Blood draws were taken, retro-orbitally, every other week (for a total of three blood draws per group) to determine the plasma levels of compounds throughout the duration of the study (unless mice were euthanized prior to completion of the 28-day dosing period). […] Any animals showing more than 9% weight loss were weighed every day and animals were euthanized after a weight loss of 15% or more or evidence of high distress (e.g., listless, hunched posture, high grimace score). Also, plasma samples were drawn at euthanasia. Control groups included vehicle only and no manipulation.
A summary of the study is illustrated in FIG. 14. There are six groups with 90 mice total and following is an overview of groups for the study.
The following are criteria for dose escalation and staggering of group starting points. Animals in each group are monitored after the initial dose for 3-4 days, and if there is no observed dose-limiting toxicity (DLT), then a separate cohort of naïve animals are administered the next higher dose level. Note that each cohort of animals receives the same drug and drug dose for the duration of the 28-day dosing period unless euthanasia is required. Animals in the second, dose-escalated group, are then monitored for 3-4 days, and if there is no observed DLT, animals from a fresh cohort are administered the next higher dose level, while continuing with the former cohorts up to 5 dose levels total. Animals in each cohort then are monitored after the third dose for 7 days, and if there is no observed DLT, then animals are administered the next higher doses. If DLT is observed during a monitoring period for any dose level, a subsequent dose is reduced by a level that is intermediate between the highest tolerated level tested and the minimum toxic level tested.

Cc1ccc(Nc2ncc3cccc(-c4ccc(F)cc4OC(C)C)c3n2)cc1NC(=O)c1ccc(C(=O)N(C)C)cc1 [Cmpd11, N1-(5-((8-(4-fluoro-2-isopropoxyphenyl)quinazolin-2-yl)amino)-2-methylphenyl)-N4,N4-dimethylterephthalamide]
tolerability relative to COM1 (at doses required to reach the in vitro K562-Luc EC50 plasma levels in vivo, early results): more tolerable than COM1 | tolerability (daily IP, 1.5 mg/kg, through day 24): well tolerated | tolerability (daily IP, 4.5 mg/kg, through day 14): well tolerated | mortality at 168 h (mouse, in vivo, daily IP, 18 mg/kg (12X EC50), by day 7, read-out: expiration of animals (2 out of 5)): 40%
